Assay results: the Kinase Knowledgebase extract (Sharma et al. 2016)

Columns and labels:
[1] = target: MAPK14 (human) (UniProt Q16539); assay: Inhibition of p38 Kinase Activity
[2] = target: MAPK14 (human) (UniProt Q16539); assay: Inhibition of IL-1 Production in LPS Stimulated PBMC
[3] = target: MAPK14 (human) (UniProt Q16539); assay: Inhibition of TNF-alpha Production in LPS Stimulated PBMC
[4] = target: MAPK14 (human) (UniProt Q16539); assay: Inhibition of TNF-alpha Production in LPS Stimulated Whole Blood Cells
[5] = target: MAPK14 (human) (UniProt Q16539); assay: Inhibition of IL-1 Production in LPS Whole Blood Cells
[6] = target: MAPK14 (human) (UniProt Q16539); assay: Inhibition of IL-6 Production in Whole Blood Cells

Chain of MAPK14 (human) (Q16539 whole entry, looked up): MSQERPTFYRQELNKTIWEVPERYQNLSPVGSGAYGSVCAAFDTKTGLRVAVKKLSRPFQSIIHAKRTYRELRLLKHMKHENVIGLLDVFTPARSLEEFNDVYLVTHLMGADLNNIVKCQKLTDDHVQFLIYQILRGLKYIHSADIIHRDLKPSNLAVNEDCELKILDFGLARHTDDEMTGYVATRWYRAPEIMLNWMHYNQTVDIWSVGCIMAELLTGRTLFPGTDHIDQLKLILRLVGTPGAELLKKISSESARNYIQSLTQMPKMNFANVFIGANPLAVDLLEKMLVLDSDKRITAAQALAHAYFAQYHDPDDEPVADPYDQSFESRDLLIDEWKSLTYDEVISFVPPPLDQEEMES

Row | IC50 [1] [nM] | IC50 [2] [nM] | IC50 [3] [nM] | IC50 [4] [nM] | IC50 [5] [nM] | IC50 [6] [nM] | Structure (SMILES)
1 | 27 | 27 | 10 | 90 | 57 | 75 | Cc1cc(F)ccc1-c1nc(N(C(N)=O)c2c(F)cccc2F)ccc1CO
2 | 56 | 21 | 140 | 64 | 420 | 250 | Cc1ccccc1-c1nc(N(C(N)=O)c2c(Cl)cccc2Cl)ccc1CO
3 | 2 | 20 | 50 | 55 | 118 | 180 | Cc1cc(F)ccc1-c1nc(N(C(N)=O)c2c(Cl)cccc2Cl)ccc1CO
